For series [1] the following is noted: pH 6.2.
Procedure: (§1) (3) Solubility of X in water C0 = [Xaq] = A/(ε · l) was determined by UV absorbance after centrifugation of samples (10 min, 10,000× g). l = 1 cm. ε—molar absorbance coefficient (Figure 1C).
For the next series, the system named is B. subtilis (NCIB 8054). Description: Agar diffusion test, MIC. The format is cell-based, Bacillus subtilis. Particulars: Bacillus subtilis. Here is the method:
The strains used in this study were Escherichia coli (NCIB 12210) and Bacillus subtilis (NCIB 8054) from National Resource Center All-Russian collection of industrial microorganisms SIC “Kurchatov Institute”). The culture was cultivated for 18–20 h at 37 °C to CFU ≈ 5 × 10^6 – 8 × 10^6 (determined by A600) in liquid nutrient medium Luria–Bertani (pH 7.2): E. coli—without stirring, B. subtilis—with stirring 180 rpm.
The study of the antibacterial effect of Lev and adjuvants was carried out by (a) agar diffusion test and (b) broth micro-dilution method. (a) A measured 500 µL of 100-fold culture dilution was evenly distributed over a solid nutrient medium (LB, pH 7.2) on a Petri dish. After 20 min, agar disks with a diameter of 9 mm were removed from the cups and 50 µL of the test samples were placed in the formed wells at the required concentration in a sterile PBS buffer (see Section 3.3 (2)). After 30 min, Petri dishes were placed in a 37 °C thermostat. After 24 h, the diameters of the growth inhibition zones were measured. Minimum inhibitory concentrations (MICs) are determined as the infimum of multiple concentrations of an antimicrobial that inhibits the visible growth of a microorganism after overnight incubation. (b) According to the standard broth micro-dilution method, 200 µL of the overnight culture (5 × 10^6 CFU) was placed into a 96 micro-titer plate wells. Then 50 µL of tested samples was added. The range of tested Lev concentration was 4–200 ng/mL, adjuvants concentration was in the range of 0.008–2 mg/mL. Optical density measurements at 600 nm were taken at various times (0, 3, and 18 h) to determine the number of cells. The dependence of CFU (determined by A600) on the concentration of Lev, APAB or terpenoid (briefly X) was approximated according to the Boltzmann equation (Origin software): CFU = (control CFU)/(1 + exp(([X] − MIC50)/constant value)). MIC50 and MIC90 are defined as concentrations at which the inhibition of bacterial growth by 50 and 90% is noticeable, respectively. In other words, the concentration at which the ordinate value (CFU) is equal to 50 or 10% of the control sample minus the background.
(Agar diffusion results depend on both activity and mobility in agar.)

Series [2] is described as follows: Dissolution of APAB on inclusion into CD, observed in a light microscope. Format: physicochemical. To be noted: MCD and HPCD. Here is the method:
The dependence of the dissolution degree on the content of CD in the system was determined. […] Since soluble complex forms of EG, apiol and other individual components of essential oils have been obtained, a quantitative study of the adjuvant and synergistic activities of APAB is relevant but previously impossible because of the stratification of substances and the formation of oil fractions. The following are the results of experiments to determine the antibacterial and synergistic effects of adjuvant–CD complexes.

Details of series [3]: method as in doi:10.1016/j.foodres.2009.06.006. Particulars: complex with β-form of CD; cited from earlier work.
A short description of series [4]: Dissociation constant of complexes with HPCD by FTIR spectroscopy. Particulars: complex with HPCD, aqueous solutions, 22 °C. The format is physicochemical.
Source text: Changes in the microenvironment of chemical bonds, functional groups, protonation/deprotonation, or the formation of non-valent interactions between the receptor and the ligand (in this case, the formation of guest–host inclusion complexes of CD with EG and apiol molecules) leads to a change in the intensity or position of characteristic peaks in the IR spectra. […] The above-indicated peaks in the IR spectra are composite which was visually confirmed by the changes in the shape of peaks and even the appearance of shoulders when the APAB was turned on in the CD cavity. To separate the complex peaks into components, increase sensitivity and obtain more detailed information, the differentiation method was used. The shifts of minima/maxima of the second derivative of spectra (Figure 2B) in allyl ν(C=C) and aromatic ν(C–C) regions were the most prominent. […]
ATR-FTIR spectra of samples’ solutions (point 3.3.1) were recorded using a Bruker Tensor 27 spectrometer equipped with a liquid nitrogen cooled MCT (mercury cadmium telluride) detector. […] ATR-FTIR spectra of solid samples placed on KBr glass were recorded using a Bruker Lumos II IR microscope in the region from 700 to 4000 cm^−1 with 1 cm^−1 spectral resolution with scanning in the area on average 1 × 1 microns. […]
Series [5] in a line: Formation of inclusion complexes with HPCD (UV spectroscopy, Hill linearization). To be noted: pH 6.2, 22 °C; for EE, % / LC, %: 0.01 M. The format is physicochemical. The method, then:
To optimize the system composition, similar experiments were carried out on the formation of EG and apiol inclusion complexes with HPCD (Figure S1). […] According to these changes, the dissociation constants of the EG–HPCD and apiol–HPCD complexes (Figure S2) were calculated by Hill’s equation (Table 1). […] The physicochemical parameters of the interaction of APAB and terpenoids (X) with CD were studied by determining the concentration of substances in the aqueous fraction ([APAB] + [APAB-MCD]) according to the calibration dependence (Figure 1C) for systems with a constant amount of the essential oil component X and the concentration gradient MCD (Table 1). Theta (θ) is a fraction of the bound substance X:θ = [X-MCD]/([X-MCD] + [X]) and was calculated based on the dependence of the absorption intensity X on the MCD concentration in the system in the form of a sigmoidal Hill curve with subsequent linearization (Section 3, Section 3.3 and Section 3.4).
The molar excess of CD varied from 0.04 to 10). Further, the complexes were incubated for 1 h at 37 °C and then centrifuged ([…], 15 min, Eppendorf tubes) to separate the insoluble fractions. Complexes were studied by UV and FTIR spectroscopy.
UV spectra of solutions (point 3.3.1) were recorded on the AmerSham Biosciences UltraSpec 2100 pro device (USA) three times in the range of 200–400 nm in a quartz cell Hellma 100–QS with an optical path of 1 cm. Background spectrum (5 mM sodium phosphate buffer (pH 6.2) with 50% EtOH) was subtracted as a blank.
(1) Calculation of the dissociation constants X–MCD and X–HPCD, where X is a “guest” compound, considering the equilibrium: Xaq + n MCDaq ↔ X·nMCDaq, where Kd = [MCDaq]^n · [Xaq]/[X·nMCDaq].
First, fitting of the curves of change of the analytical signal ξ (peak intensity or peak position) versus concentration of the MCD or HPCD or was carried out using the Hill equations: (1) ξ = ξ∞ · [MCD]^n/([MCD]^n + K^n), where ξ∞—horizontal asymptote; (2) ξ = ξ0 + (ξ∞–ξ0) · [MCD]^n/([MCD]^n + K^n). Second, calculation n and Kd values by Hill’s linearization in n-binding site model: lg (θ/(1 – θ)) = n · lg [L] – lg Kd, where θ = |(ξ – ξ0)/(ξ∞ − ξ0)|is a fraction of the bound substance. N in Hill equation—number of drug molecules per CD torus.

The next series relates to Gram-negative bacteria. Details: method as in PMID 19540744. To be noted: cited from earlier work.
Series [6] in a line: Solubility of X in water and in the presence of MCD/HPCD (UV absorbance).
Procedure: as §1
[7] abbreviates: NCIB8054, B. subtilis 7 × 10^6 CFU, agar diffusion test, inclusion complexes with MCD, LB pH 7.2, 37 °C, 20 h, read-out: MIC.

≈ marks a conversion by molar mass, not a printed value. Read-outs that look alike come from different tables or passages of the source.

By MIC is commonly meant the lowest concentration that inhibits growth of the organism. Regarding `CC1CCC(C(C)C)C(O)C1` (stereo not shown) [Menthol], in series [1], the “Cmax in the Presence of 2 mM MCD” value was found to be 1.4 ± 0.2 mM and the “Cmax in the Presence of 10 mM MCD” value is 8.5 ± 0.8 mM. Further, the MIC in the series on B. subtilis (NCIB 8054) (setting [7]) was 2600 µg/mL (≈ 16.6 mM). For the same molecule, the MIC with B. subtilis (NCIB 8054) (NCIB8054, B. subtilis, agar diffusion test, read-out: MIC) is 2.6 µg/mL (≈ 0.0166 mM).

By Kd is commonly meant the free concentration of one partner at which half of the binding sites on the other are occupied at equilibrium, for simple one-to-one binding. Read a low Kd as a tighter complex. Turning to `C=CCc1ccc(O)c(OC)c1` [Eugenol, 4-allyl-2-methoxyphenol], in series [2], the “amount of CD required for a noticeable conversion to the complex/soluble form” value is “equimolar” and the “molar excess of CD for almost complete dissolution” value turned out to be 5 fold molar excess. In series [1], the “Cmax in the Presence of 2 mM HPCD” value is recorded as 8.3 ± 0.2 (MCD), 8.5 ± 0.1 (HPCD) mM; the “Cmax in the Presence of 2 mM MCD” value is given as 8.3 ± 0.2 (MCD), 8.5 ± 0.1 (HPCD) mM; the “Cmax in the Presence of 10 mM HPCD” value is on record as 11 ± 1 (MCD), 13 ± 1 (HPCD) mM; the “Cmax in the Presence of 10 mM MCD” value is on record as 11 ± 1 (MCD), 13 ± 1 (HPCD) mM. Besides, the MIC with B. subtilis (NCIB 8054) (setting [7]) was determined as 1000 µg/mL (≈ 6.09 mM). Moreover, the half-dissociation period in series [3] is listed as 3 h. This molecule also showed a Kd in series [4] of 4.1 ± 0.3 mM. In series [5], the “EE, %” value is on record as 56 ± 7%; the “LC, %” value is recorded as 9 ± 1%; the n is listed as 1.2 ± 0.1. Moreover, the “reduction of the MIC of antibiotics by EG as an adjuvant” value in the series with Gram-negative bacteria (Gram-negative bacteria, highest values for tetracycline and vancomycin) was 5–1000 times. In the series with Gram-negative bacteria (suggested), the “concentration at which EG forms defects in the membranes of bacteria” value was 1 mM.

Usually solubility stands for the dissolved amount per volume that the medium holds. For the molecule `C=CCc1cc(OC)c2c(c1OC)OCO2` [Apiol], in series [2], the “amount of CD required for a noticeable conversion to the complex/soluble form” value came out at 2 fold molar excess and the “molar excess of CD for almost complete dissolution” value is 10–15 fold molar excess. In the series on B. subtilis (NCIB 8054) (NCIB8054, 20 h, pH 7.2), this molecule showed an MIC of 5300 µg/mL (≈ 23.8 mM). This molecule also registered a Kd in series [4] of 4 ± 0.3 mM. In addition, the solubility in series [6] (22 °C, pH 6.2, water) came out at 130 ± 10 µM. For the same molecule, in series [5], the “EE, %” value was found to be 7 ± 1%; the “LC, %” value is 9 ± 1%; the n is listed as 1.56 ± 0.25.

Consider `C=CCc1ccc2c(c1)OCO2` [Safrole], for which the MIC with B. subtilis (NCIB 8054) (setting [7]) came to 3900 µg/mL (≈ 24 mM). Further, the “increased solubility of APAB, times” value in series [6] (APAB–MCD molar ratio 1:5 vs water without MCD, UV) turned out to be 25 times.

These data come from article PMC9321718 (Pharmaceuticals, 2022).
